Biological target: T1, hα4 and β1 integrins (Homo sapiens, UniProt P05556+P13612)
T1 construct: expressed in transfected cells; host or cells: CHO cells
Assay: In vitro inhibition of binding between CHO cells expressing hα4 and β1 integrins and Eu3+-hVCAM-1 D1D7-IgG
Conditions: for Ki: CHO cells expressing hα4 and β1 integrins, Eu3+-hVCAM-1 D1D7-IgG ligand, without HSA; for IC50: in the presence of 3% human serum albumin (HSA final concentration 3%)
Description: CHO cells which forcibly expressed hα4 and β1 integrins through transfection thereof, were inoculated into a Costar 3599 plate (3×10^4 cells/100 μl/well), and cultured for two days. The cells in the wells were washed two times with buffer A*, and then Eu^3+-hVCAM-1 D1D7-IgG diluted with assay buffer** to 2 nM was added in an amount of 50 μl/well. The substance under test diluted with 26 DMSO-assay buffer (in the co-presence or absence of 6% human serum albumin) was added in an amount of 50 μl/well (adding separately diluted solution to the wells for performing Scatchard analysis), the contents were stirred for 5 minutes with a plate mixer, and then the plate was left to stand still for one hour at room temperature. The binding inhibitory activity in the presence of human serum albumin (HSA) was examined by diluting the specimen with 26 DMSO-assay buffer containing 6% HSA (SIGMA Corp., c/n A-1653), and adding the resultant (HSA final concentration 3%). After 30 to 60 minutes of the addition of specimen, the plate contents were washed 4 times with buffer A at 4° C., an enhancing reagent (DELFIA SA) was added in an amount of 100 μl/well, and the plate was shaken for 5 minutes using a plate mixer. Subsequently, the fluorescence intensity was measured with a time-resolved fluorometer (DELFIA Wallac). The IC50 of the substance under test (the concentration for 50% inhibition of the binding between CHO cells and Eu^3+-hVCAM-1 D1D7-IgG) was determined from the binding rate obtained from the calculating expression of [(FT−FNS)−(FI−FNS)]/[(FT−FNS)]×100. Here, FT represents the fluorescence intensity of a well not containing the substance under test; FNS represents the fluorescence intensity of a well not containing the substance under test and hVCAM-1 D1D7-IgG; and FI represents the fluorescence intensity of a well containing the substance under test. The Kd value which represents the strength of binding, and Bmax (maximum binding amount) were estimated to be in the range of 0.06 to 20 nM according to the Scatchard analysis method. The evaluation results of the Ki value of the substance under test, and of the IC50 value in the presence of 3% HSA are presented in Tables 2 to 7.
The Ki value was calculated according to the above-described expression. ([L] is the ligand concentration)
[* buffer A: 25 mM HEPES (pH 7.5), 150 mM NaCl, 1 mM Ca^2+, 1 mM Mg^2+, 4 mM Mn2+;
** assay buffer: 25 mM HEPES (pH=7.5), 150 mM NaCl, 1 mM Ca^2+, 1 mM Mg^2+, 4 mM Mn^2+, 0.1% BSA, 20 μM DTPA, with/without 6% ALBUMIN, HUMAN SERUM (C/N A-1653, SIGMA)]

T1 sequence (P13612 34-1032): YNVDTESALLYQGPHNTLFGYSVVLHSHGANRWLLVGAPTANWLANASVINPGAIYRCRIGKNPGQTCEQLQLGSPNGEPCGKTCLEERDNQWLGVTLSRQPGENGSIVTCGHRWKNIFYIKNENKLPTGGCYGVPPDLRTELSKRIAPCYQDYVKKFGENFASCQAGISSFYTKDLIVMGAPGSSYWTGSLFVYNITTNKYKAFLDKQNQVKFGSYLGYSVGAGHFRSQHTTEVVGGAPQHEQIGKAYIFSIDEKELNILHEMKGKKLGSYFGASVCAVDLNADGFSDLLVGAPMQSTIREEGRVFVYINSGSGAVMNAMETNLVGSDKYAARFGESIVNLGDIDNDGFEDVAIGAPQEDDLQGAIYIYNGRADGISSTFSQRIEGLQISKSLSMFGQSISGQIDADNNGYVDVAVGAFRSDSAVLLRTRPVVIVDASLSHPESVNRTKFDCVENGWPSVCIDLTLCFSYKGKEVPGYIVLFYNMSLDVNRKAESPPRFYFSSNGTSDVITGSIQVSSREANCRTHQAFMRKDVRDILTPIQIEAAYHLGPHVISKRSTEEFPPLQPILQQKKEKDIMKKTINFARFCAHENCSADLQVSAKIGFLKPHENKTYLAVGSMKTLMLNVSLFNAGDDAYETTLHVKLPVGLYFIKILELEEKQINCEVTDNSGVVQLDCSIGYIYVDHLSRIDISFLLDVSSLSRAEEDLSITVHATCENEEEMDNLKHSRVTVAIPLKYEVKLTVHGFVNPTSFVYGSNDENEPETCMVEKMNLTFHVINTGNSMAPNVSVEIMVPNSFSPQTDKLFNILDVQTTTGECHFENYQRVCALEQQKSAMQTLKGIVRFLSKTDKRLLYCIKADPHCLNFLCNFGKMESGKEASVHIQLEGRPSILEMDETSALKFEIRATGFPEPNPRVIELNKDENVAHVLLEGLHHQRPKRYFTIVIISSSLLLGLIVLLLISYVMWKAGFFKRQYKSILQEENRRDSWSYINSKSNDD
T1 sequence (P05556 21-798): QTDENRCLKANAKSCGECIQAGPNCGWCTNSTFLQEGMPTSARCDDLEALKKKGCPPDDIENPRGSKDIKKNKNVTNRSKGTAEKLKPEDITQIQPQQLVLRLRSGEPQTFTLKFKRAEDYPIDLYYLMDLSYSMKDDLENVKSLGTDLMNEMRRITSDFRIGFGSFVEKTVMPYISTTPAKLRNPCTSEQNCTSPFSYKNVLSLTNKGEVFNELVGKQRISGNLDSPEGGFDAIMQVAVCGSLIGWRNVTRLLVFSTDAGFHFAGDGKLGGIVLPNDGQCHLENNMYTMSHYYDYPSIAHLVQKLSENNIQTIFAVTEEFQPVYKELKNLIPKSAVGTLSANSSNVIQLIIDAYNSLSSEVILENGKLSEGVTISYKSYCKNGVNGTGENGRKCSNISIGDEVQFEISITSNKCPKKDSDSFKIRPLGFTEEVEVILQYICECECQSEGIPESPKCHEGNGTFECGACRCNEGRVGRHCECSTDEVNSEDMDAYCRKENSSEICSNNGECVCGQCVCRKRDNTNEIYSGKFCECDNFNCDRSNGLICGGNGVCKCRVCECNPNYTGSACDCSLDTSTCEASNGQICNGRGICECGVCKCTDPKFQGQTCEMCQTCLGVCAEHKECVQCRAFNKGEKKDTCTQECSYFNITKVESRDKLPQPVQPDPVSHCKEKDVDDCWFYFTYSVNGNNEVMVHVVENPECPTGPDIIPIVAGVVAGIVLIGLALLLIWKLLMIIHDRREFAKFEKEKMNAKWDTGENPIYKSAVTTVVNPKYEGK

| Ki [nM] | IC50 [nM] | Structure (SMILES) |
| --- | --- | --- |
| 5.9 | 76 | COC1CN([C@H]2C[C@@H](CO[C@H]3CC[C@H](C(=O)O)CC3)N(C(=O)Cc3cc(Cl)c(NC(=O)c4coc5ccccc45)cc3Cl)C2)C1 [Example 6, Trans-4-[1-[[4-[(benzo[b]furan-3-ylcarbonyl)amino]-2,5-dichlorophenyl]acetyl]-(4S)-(3-methoxyazetidin-1-yl)-(2S)-pyrrolidinylmethoxy]cyclohexanecarboxylic acid] |
| 1.4 | 8.2 | O=C(Nc1cc(F)c(CC(=O)N2C[C@@H](N3CCC3)C[C@H]2CO[C@H]2CC[C@H](C(=O)O)CC2)cc1Cl)c1csc2ccccc12 [Example 9, Trans-4-[(4S)-(azetidin-1-yl)-1-[[4-[(benzo[b]thiophen-3-ylcarbonyl)amino]-5-chloro-2-fluorophenyl]acetyl]-(2S)-pyrrolidinylmethoxy]cyclohexanecarboxylic acid] |
| 3.5 | 21 | CC1CN([C@H]2C[C@@H](CO[C@H]3CC[C@H](C(=O)O)CC3)N(C(=O)Cc3cc(Cl)c(NC(=O)c4coc5ccccc45)cc3F)C2)C1 [Example 11, Trans-4-[1-[[4-[(benzo[b]furan-3-ylcarbonyl)amino]-5-chloro-2-fluorophenyl]acetyl]-(4S)-(3-methylazetidin-1-yl)-(2S)-pyrrolidinylmethoxy]cyclohexanecarboxylic acid] |
| 7.7 | 64 | O=C(Nc1cc(F)c(CC(=O)N2C[C@@H](N3CC(CF)C3)C[C@H]2CO[C@H]2CC[C@H](C(=O)O)CC2)cc1Cl)c1coc2ccccc12 [Example 13, Trans-4-[1-[[4-[(benzo[b]furan-3-ylcarbonyl)amino]-5-chloro-2-fluorophenyl]acetyl]-(4S)-[3-(fluoromethyl)azetidin-1-yl]-(2S)-pyrrolidinylmethoxy]cyclohexanecarboxylic acid] |
| 5.3 | 41 | COC1(C)CN([C@H]2C[C@@H](CO[C@H]3CC[C@H](C(=O)O)CC3)N(C(=O)Cc3cc(Cl)c(NC(=O)c4cn(C)c5ccccc45)cc3F)C2)C1 [Example 16, Trans-4-[1-[[5-chloro-2-fluoro-4-[(1-methyl-1H-indol-3-ylcarbonyl)amino]phenyl]acetyl]-(4S)-(3-methoxy-3-methylazetidin-1-yl)-(2S)-pyrrolidinylmethoxy]cyclohexanecarboxylic acid] |
| 1.8 | 48 | CCC1(OC)CN([C@H]2C[C@@H](CO[C@H]3CC[C@H](C(=O)O)CC3)N(C(=O)Cc3cc(Cl)c(NC(=O)c4csc5ccccc45)cc3F)C2)C1 [Example 17, Trans-4-[1-[[4-[(benzo[b]thiophen-3-ylcarbonyl)amino]-5-chloro-2-fluorophenyl]acetyl]-(4S)-(3-ethyl-3-methoxyazetidin-1-yl)-(2S)-pyrrolidinylmethoxy]cyclohexanecarboxylic acid] |
| 2.5 | 14 | CN(C)C1CN([C@H]2C[C@@H](CO[C@H]3CC[C@H](C(=O)O)CC3)N(C(=O)Cc3cc(Cl)c(NC(=O)c4csc5ccccc45)cc3Cl)C2)C1 [Example 23, Trans-4-[1-[[4-[(benzo[b]thiophen-3-ylcarbonyl)amino]-2,5-dichlorophenyl]acetyl]-(4S)-[3-(N,N-dimethylamino)azetidin-1-yl]-(2S)-pyrrolidinylmethoxy]cyclohexanecarboxylic acid] |
| 2.1 | 9.2 | Cn1cc(C(=O)Nc2cc(F)c(CC(=O)N3C[C@@H](N4CC[C@H](F)C4)C[C@H]3CO[C@H]3CC[C@H](C(=O)O)CC3)cc2Cl)c2ccccc21 [Example 37, Trans-4-[1-[[5-chloro-2-fluoro-4-[(1-methyl-1H-indol-3-ylcarbonyl)amino]phenyl]acetyl]-(4S)-[(3S)-fluoropyrrolidin-1-yl]-(2S)-pyrrolidinylmethoxy]cyclohexanecarboxylic acid] |
| 1.7 | 24 | O=C(Nc1cc(F)c(CC(=O)N2C[C@@H](N3CCC(F)(F)C3)C[C@H]2CO[C@H]2CC[C@H](C(=O)O)CC2)cc1Cl)c1csc2ccccc12 [Example 38, Trans-4-[1-[[4-[(benzo[b]thiophen-3-ylcarbonyl)amino]-5-chloro-2-fluorophenyl]acetyl]-(4S)-(3,3-difluoropyrrolidin-1-yl)-(2S)-pyrrolidinylmethoxy]cyclohexanecarboxylic acid] |
| 0.64 | 4.9 | O=C(Nc1cc(F)c(CC(=O)N2C[C@@H](N3CCC4(CC4)C3)C[C@H]2CO[C@H]2CC[C@H](C(=O)O)CC2)cc1Cl)c1csc2ccccc12 [Example 39, Trans-4-[(4S)-(5-azaspiro[2.4]heptan-5-yl)-1-[[4-[(benzo[b]thiophen-3-ylcarbonyl)amino]-5-chloro-2-fluorophenyl]acetyl]-(2S)-pyrrolidinylmethoxy]cyclohexanecarboxylic acid] |
| 2 | 9.1 | CC1CCCN1[C@H]1C[C@@H](CO[C@H]2CC[C@H](C(=O)O)CC2)N(C(=O)Cc2cc(Cl)c(NC(=O)c3csc4ccccc34)cc2F)C1 (stereo partly drawn) [Example 40, Trans-4-[1-[[4-[(benzo[b]thiophen-3-ylcarbonyl)amino]-5-chloro-2-fluorophenyl]acetyl]-(4S)-(2-methylpyrrolidin-1-yl)-(2S)-pyrrolidinylmethoxy]cyclohexanecarboxylic acid] |
| 2 | 38 | CCOC[C@@H]1CCCN1[C@H]1C[C@@H](CO[C@H]2CC[C@H](C(=O)O)CC2)N(C(=O)Cc2cc(Cl)c(NC(=O)c3csc4ccccc34)cc2Cl)C1 [Example 43, Trans-4-[1-[[4-[(benzo[b]thiophen-3-ylcarbonyl)amino]-2,5-dichlorophenyl]acetyl]-(4S)-[(2S)-ethoxymethylpyrrolidin-1-yl]-(2S)-pyrrolidinylmethoxy]cyclohexanecarboxylic acid] |
| 6.8 | 24 | COC[C@H]1CCCN1[C@H]1C[C@@H](CO[C@H]2CC[C@H](C(=O)O)CC2)N(C(=O)Cc2cc(Cl)c(NC(=O)c3csc4ccccc34)cc2F)C1 [Example 44, Trans-4-[1-[[4-[(benzo[b]thiophen-3-ylcarbonyl)amino]-5-chloro-2-fluorophenyl]acetyl]-(4S)-[(2R)-methoxymethylpyrrolidin-1-yl]-(2S)-pyrrolidinylmethoxy]cyclohexanecarboxylic acid] |
| 14 | 15 | COC[C@@H]1C[C@H](F)CN1[C@H]1C[C@@H](CO[C@H]2CC[C@H](C(=O)O)CC2)N(C(=O)Cc2cc(Cl)c(NC(=O)c3cn(C)c4ccccc34)cc2Cl)C1 [Example 45, Trans-4-[1-[[2,5-dichloro-4-[(1-methyl-1H-indol-3-ylcarbonyl)amino]phenyl]acetyl]-(4S)-[(4S)-fluoro-(2S)-methoxymethylpyrrolidin-1-yl]-(2S)-pyrrolidinylmethoxy]cyclohexane carboxylic acid] |
| 18 | 52 | C[C@@H]1CC[C@@H](C)N1[C@H]1C[C@@H](CO[C@H]2CC[C@H](C(=O)O)CC2)N(C(=O)Cc2cc(Cl)c(NC(=O)c3coc4ccccc34)cc2F)C1 [Example 47, Trans-4-[1-[[4-[(benzo[b]furan-3-ylcarbonyl)amino]-5-chloro-2-fluorophenyl]acetyl]-(4S)-[(2R,5R)-dimethylpyrrolidin-1-yl]-(2S)-pyrrolidinylmethoxy]cyclohexanecarboxylic acid] |
| 4 | 62 | COC[C@H]1CC[C@H](COC)N1[C@H]1C[C@@H](CO[C@H]2CC[C@H](C(=O)O)CC2)N(C(=O)Cc2cc(Cl)c(NC(=O)c3csc4ccccc34)cc2F)C1 [Example 49] |

— patent US8129366B2, “VLA-4 inhibitory drug” (Daiichi Sankyo Company, Limited, priority 2005, dated 2012)
